Measured values as given in ChEMBL document CHEMBL3091424, “Anti-tubercular agents. Part 8: synthesis, antibacterial and antitubercular activity of 5-nitrofuran based 1,2,3-triazoles” (Bioorg Med Chem Lett, 2013).
In brackets after ≈: the same amount, converted by molar mass. Activity calls are given as the source filed them. The calls are words filed in the database; no cut-off is given here.

Key:
Staphylococcus aureus [1] = test: Bactericidal activity against Staphylococcus aureus MTCC 96 after 24 hrs; format: functional; conditions: MTCC 96, 24 h
Escherichia coli [2] = test: Bactericidal activity against Escherichia coli MTCC 739 after 24 hrs; format: functional; conditions: MTCC 739, 24 h
Enterococcus faecalis = test: Antimicrobial activity against vancomycin -resistant Enterococcus faecalis after 24 hrs by microdilution method; format: functional
Micrococcus luteus [3] = test: Antimicrobial activity against Micrococcus luteus MTCC 2470 after 24 hrs by well diffusion method; format: functional; conditions: MTCC 2470, 24 h
Staphylococcus aureus [4] = test: Antimicrobial activity against Staphylococcus aureus MLS-16 MTCC 2940 after 24 hrs by well diffusion method; format: functional; conditions: MLS-16 MTCC 2940, 24 h
Raoultella planticola [5] = test: Antibiofilm activity against Klebsiella planticola MTCC 530 after 24 hrs by crystal violet assay; format: functional, organism-based; conditions: for IC50: MTCC 530, 24 h
Escherichia coli [6] = test: Antimicrobial activity against Escherichia coli MTCC 739 after 24 hrs by well diffusion method; format: functional; conditions: MTCC 739, 24 h
Raoultella planticola [7] = test: Bactericidal activity against Klebsiella planticola MTCC 530 after 24 hrs; format: functional; conditions: MTCC 530, 24 h
Staphylococcus aureus [8] = test: Bactericidal activity against Staphylococcus aureus MLS-16 MTCC 2940 after 24 hrs; format: functional; conditions: MLS-16 MTCC 2940, 24 h
Bacillus subtilis [9] = test: Bactericidal activity against Bacillus subtilis MTCC 121 after 24 hrs; format: functional; conditions: MTCC 121, 24 h
Bacillus subtilis [10] = test: Antimicrobial activity against Bacillus subtilis MTCC 121 after 24 hrs by well diffusion method; format: functional; conditions: MTCC 121, 24 h
Staphylococcus aureus [11] = test: Antimicrobial activity against Staphylococcus aureus MTCC 96 after 24 hrs by well diffusion method; format: functional; conditions: MTCC 96, 24 h
Staphylococcus aureus [12] = test: Antimicrobial activity against methicillin-resistant Staphylococcus aureus after 24 hrs by microdilution method; format: functional
Staphylococcus aureus [13] = test: Antibiofilm activity against Staphylococcus aureus MTCC 96 after 24 hrs by crystal violet assay; format: functional, organism-based; conditions: for IC50: MTCC 96, 24 h
MRC5 = test: Cytotoxicity against human MRC5 cells; format: cell-based
Vero = test: Cytotoxicity against african green monkey Vero cells; format: cell-based; conditions: Chlorocebus sabaeus
Staphylococcus aureus [14] = test: Antibiofilm activity against Staphylococcus aureus MLS-16 MTCC 2940 after 24 hrs by crystal violet assay; format: functional, organism-based; conditions: MLS-16 MTCC 2940, 24 h
Pseudomonas aeruginosa [15] = test: Bactericidal activity against Pseudomonas aeruginosa MTCC 2453 after 24 hrs; format: functional; conditions: MTCC 2453, 24 h
Raoultella planticola [16] = test: Antimicrobial activity against Klebsiella planticola MTCC 530 after 24 hrs by well diffusion method; format: functional; conditions: MTCC 530, 24 h
Pseudomonas aeruginosa [17] = test: Antimicrobial activity against Pseudomonas aeruginosa MTCC 2453 after 24 hrs by well diffusion method; format: functional; conditions: MTCC 2453, 24 h
Candida albicans = test: Antimicrobial activity against Candida albicans MTCC 3017 at 150 ug/ml after 24 hrs by well diffusion method; format: functional, organism-based
Micrococcus luteus [18] = test: Bactericidal activity against Micrococcus luteus MTCC 2470 after 24 hrs; format: functional; conditions: MTCC 2470, 24 h
[19] = tested on: Mycobacterium tuberculosis; test: Antimicrobial activity against Mycobacterium tuberculosis H37Rv after 3 weeks by broth dilution method; format: functional

Compound	MBC (Staphylococcus aureus [1]) [µg/mL]	MBC (Escherichia coli [2]) [µg/mL]	MIC (Micrococcus luteus [3]) [µg/mL]	MIC (Staphylococcus aureus [4]) [µg/mL]	IC50 (Raoultella planticola [5]) [µg/mL]	MIC (Escherichia coli [6]) [µg/mL]	MBC (Raoultella planticola [7]) [µg/mL]	MBC (Staphylococcus aureus [8]) [µg/mL]	MBC (Bacillus subtilis [9]) [µg/mL]	MIC (Bacillus subtilis [10]) [µg/mL]	MIC (Staphylococcus aureus [11]) [µg/mL]	IC50 (MRC5) [µM]	IC50 (Vero) [µM]	IC50 (Staphylococcus aureus [14]) [µg/mL]	MBC (Pseudomonas aeruginosa [15]) [µg/mL]	MIC (Raoultella planticola [16]) [µg/mL]	MIC (Pseudomonas aeruginosa [17]) [µg/mL]	Activity (Candida albicans)	MBC (Micrococcus luteus [18]) [µg/mL]	Activity [19]	further results
O=C(NCc1cn(Cc2cccc([N+](=O)[O-])c2)nn1)c1ccc([N+](=O)[O-])o1	> 150	18.8 (≈ 50.4 µM)	4.68 (≈ 12.6 µM)	1.17 (≈ 3.14 µM)	14.5 (≈ 38.9 µM)	9.37 (≈ 25.2 µM)	37.5 (≈ 101 µM)	2.34 (≈ 6.29 µM)	4.68 (≈ 12.6 µM)	2.34 (≈ 6.29 µM)	> 150	199	326	0.8 (≈ 2.15 µM)	> 150	18.8 (≈ 50.4 µM)	> 150	inactive	9.37 (≈ 25.2 µM)	–	MIC (Enterococcus faecalis): > 64 µg/mL; MIC (Staphylococcus aureus [12]): 8 µg/mL (≈ 21.5 µM); IC50 (Staphylococcus aureus [13]): 84.5 µg/mL (≈ 227 µM); MIC ([19]; 504 h): 8 µg/mL (≈ 21.5 µM)
O=C(O)c1cn(C2CC2)c2cc(N3CCNCC3)c(F)cc2c1=O [CIPROFLOXACIN]	0.58 (≈ 1.75 µM)	0.58 (≈ 1.75 µM)	0.58 (≈ 1.75 µM)	0.58 (≈ 1.75 µM)	–	0.58 (≈ 1.75 µM)	1.17 (≈ 3.53 µM)	1.17 (≈ 3.53 µM)	1.17 (≈ 3.53 µM)	0.58 (≈ 1.75 µM)	0.58 (≈ 1.75 µM)	181	192	–	0.58 (≈ 1.75 µM)	0.58 (≈ 1.75 µM)	0.58 (≈ 1.75 µM)	–	0.58 (≈ 1.75 µM)	–	–
COc1cc(Cn2cc(CNC(=O)c3ccc([N+](=O)[O-])o3)nn2)ccc1F	> 150	> 150	1.17 (≈ 3.12 µM)	9.37 (≈ 25 µM)	22.7 (≈ 60.5 µM)	> 150	37.5 (≈ 99.9 µM)	9.37 (≈ 25 µM)	4.68 (≈ 12.5 µM)	2.34 (≈ 6.23 µM)	> 150	155	225	2.7 (≈ 7.19 µM)	> 150	37.5 (≈ 99.9 µM)	> 150	inactive	1.17 (≈ 3.12 µM)	inactive	inhibition (Staphylococcus aureus [13]): inactive
O=C(NCc1cn(Cc2ccc(C(F)(F)F)cc2)nn1)c1ccc([N+](=O)[O-])o1	> 150	> 150	2.34 (≈ 5.92 µM)	2.34 (≈ 5.92 µM)	–	> 150	> 150	2.34 (≈ 5.92 µM)	4.68 (≈ 11.8 µM)	1.17 (≈ 2.96 µM)	> 150	321	289	8.4 (≈ 21.2 µM)	> 150	> 150	> 150	inactive	2.34 (≈ 5.92 µM)	inactive	inhibition (Raoultella planticola [5]): inactive; IC50 (Staphylococcus aureus [13]): 64.7 µg/mL (≈ 164 µM)
COc1ccc(Cn2cc(CNC(=O)c3ccc([N+](=O)[O-])o3)nn2)cc1	75 (≈ 210 µM)	75 (≈ 210 µM)	2.34 (≈ 6.55 µM)	9.37 (≈ 26.2 µM)	24 (≈ 67.2 µM)	75 (≈ 210 µM)	37.5 (≈ 105 µM)	9.37 (≈ 26.2 µM)	4.68 (≈ 13.1 µM)	2.34 (≈ 6.55 µM)	37.5 (≈ 105 µM)	146	274	6.1 (≈ 17.1 µM)	> 150	37.5 (≈ 105 µM)	> 150	inactive	2.34 (≈ 6.55 µM)	inactive	IC50 (Staphylococcus aureus [13]): 12.6 µg/mL (≈ 35.3 µM)
COc1ccc(Cn2cc(CNC(=O)c3ccc([N+](=O)[O-])o3)nn2)cc1F	> 150	> 150	4.68 (≈ 12.5 µM)	4.68 (≈ 12.5 µM)	9.8 (≈ 26.1 µM)	> 150	18.8 (≈ 50 µM)	9.37 (≈ 25 µM)	4.68 (≈ 12.5 µM)	2.34 (≈ 6.23 µM)	> 150	324	312	3.4 (≈ 9.06 µM)	> 150	18.8 (≈ 50 µM)	> 150	inactive	9.37 (≈ 25 µM)	inactive	inhibition (Staphylococcus aureus [13]): inactive
